Test results published in patent publication US20130224855A1, “CULTURE MEDIUM FOR EUKARYOTIC CELLS” (priority 2010, published 2013).
Peptide text beside a SMILES is read from it.

Tested on: IgG expressing CHO cell line (CHO-2: ATCC CRL 11397, producing IgG4)
Assay: Growth and production curves of IgG expressing CHO cells in suspension culture in supplemented chemically defined medium
Assay type: cell-based, Chinese hamster
Details: for Cell growth (area under curve) after 14 days: dimensionless AUC
Experimental: The cell culture assay was carried out in commercially available IS CHO-CD medium (Irvine Scientific, Cat. No. 91119). […] Penicillin and streptomycin were added to prevent any bacterial growth during the growth assay. The media was supplemented with β-Alanine, γ-glutamyl cysteine, glycyl-glycine, L-homoserine or N-acetyl methionine, all purchased from Sigma Aldrich, Germany, in varying concentrations (1×10^-5 to 1×10^-1% (w/v), see Table 2). The supplemented medium was mixed with a vortex mixture, filtered using a 0.22 μm filter and subsequently used in a growth assay. An IgG expressing CHO cell line was used (CHO-2: ATCC CRL 11397, producing IgG4). The cell lines were grown in the adherent conditions for a few passages and once confluent, they were transferred to animal-free conditions in the supplemented media described in Example 5. […] Chemically defined media with and without added amino acid derivatives were tested. No fresh media was added during the growth assay. Cells were counted using the […] counter (Innovatis, Germany). The cell counts were used to calculate the area under the growth curve and represented as dimensionless area under curve (AUC) values as described in detail in Ling, C. X, Huang, J. and Zhang, H. (2003), International joint conferences on artificial intelligence, pp. 329-341. The supernatant samples were taken every alternate days for the IgG production measurements. IgG production was measured using sandwich ELISA method. […] The cells were visually inspected using a phase contrast microscope (Zeiss Axiovert 25, 400× magnification). […] Only single cells were observed and no aggregation of cells was seen. The cell shape was also positively affected. […] This was in contrast with the observation that a lot of cell aggregates were present in CHO cell cultures grown in chemically defined medium without amino acid derivatives.

[1] = added at 1 × 10^−1 % w/v in IS CHO-CD medium
[2] = added at 1 × 10^−1 % w/v in IS CHO-CD medium, ratio of cumulative IgG (mg/ml) and AUC at day 11
[3] = added at 1 × 10^−2 % w/v in IS CHO-CD medium
[4] = added at 1 × 10^−3 % w/v in IS CHO-CD medium
[5] = added at 1 × 10^−4 % w/v in IS CHO-CD medium
[6] = added at 1 × 10^−5 % w/v in IS CHO-CD medium

Row | Compound | Cell growth (area under curve) after 14 days [1] | Specific IgG production after 11 days [2] | Specific IgG production after 11 days [3] | Cell growth (area under curve) after 14 days [3] | Specific IgG production after 11 days [4] | Cell growth (area under curve) after 14 days [4] | Specific IgG production after 11 days [5] | Cell growth (area under curve) after 14 days [5] | Specific IgG production after 11 days [6] | Cell growth (area under curve) after 14 days [6]
1 | NCC(=O)NCC(=O)O [Glycyl-glycine] (H-Gly-Gly-OH) | 50.6 | 86.6 | 95.8 | 48.2 | 104.2 | 49.6 | 113.5 | 47.7 | 102.0 | 51.0
2 | N[C@@H](CCO)C(=O)O [L-homoserine] | 45.7 | 122.0 | 72.0 | 59.1 | 96.8 | 39.4 | – | – | – | –
3 | CSCC[C@H](NC(C)=O)C(=O)O [N-acetyl methionine] | 48.6 | 91.9 | 90.4 | 47.9 | 94.4 | 46.0 | 90.3 | 38.6 | 81.3 | 41.2
4 | NCCC(=O)O [β-alanine] | 62.5 | 92.8 | 108.6 | 51.3 | 97.1 | 50.6 | – | – | – | –
5 | N[C@@H](CCC(=O)N[C@@H](CS)C(=O)O)C(=O)O [γ-glutamyl cysteine] | 46.1 | 78.2 | 105.9 | 42.8 | 68.33 | 58.0 | 77.2 | 47.6 | 72.5 | 58.9
